According to patent US20250161404A1, “METHODS AND COMPOSITIONS FOR THE CONTROL OF INFLAMMATION IN SKIN DISEASE” (VANDERBILT UNIVERSITY, priority 2023, published 2025):
≈ marks a conversion by molar mass, not a printed value. Where a SMILES comes first, the peptide text is derived from it. Bridges are numbered along the chain shown (N, C = ends).

Tests used:
[1] = Cell viability of cultured human keratinocytes; type: cell-based; details: in all conditions, 48 hours after TNF-α/IL-17 challenge
[2] = long-term NTCI treatment; cited from earlier work
[3] = Solubility of the peptide; type: physicochemical; details: cSN50: depending on the method of synthesis and purification; read-out: soluble at levels of
Method: cSN50.1 is a cyclized peptide having the sequence of cSN50 with the exception that the tyrosine at position 18 of cSN50, adjacent to the first cysteine, has been removed. Methods of making and using cSN50 are described, for example, in U.S. Pat. Nos. 7,553,929 and 6,495,518. The amino acid sequence of cSN50.1 is […] (SEQ ID NO: 2). The tyrosine at position 18 was removed from the sequence of cSN50 to increase solubility. cSN50 is soluble at levels of ranging from 2.0 mg/mL to 40 mg/mL depending on the method of synthesis and purification whereas cSN50.1 is soluble at levels of at least 100 mg/ml. Any mimetics, derivatives, or homologs of cSN50.1 may be used in the compositions, methods, and kits disclosed herein. cSN50.1 is also encompassed by SEQ ID NO: 3, SEQ ID NO: 4 and SEQ ID NO: 5. Additional examples of NTMs include fragment-designed and synthesized peptides in which cargo is incorporated as two, rather than one, modules or cargos derived from intracellular proteins other than NFκB 1. Such additional examples include the sequences of SEQ ID NO: 6, SEQ ID NO: 7, SEQ ID NO: 8, and SEQ ID NO: 9.

Imp beta = Imp beta (Homo sapiens, UniProt Q14974); experiment: Cell culture and preclinical studies (Table 3 comment)
Sequence of Imp beta (Q14974 whole entry): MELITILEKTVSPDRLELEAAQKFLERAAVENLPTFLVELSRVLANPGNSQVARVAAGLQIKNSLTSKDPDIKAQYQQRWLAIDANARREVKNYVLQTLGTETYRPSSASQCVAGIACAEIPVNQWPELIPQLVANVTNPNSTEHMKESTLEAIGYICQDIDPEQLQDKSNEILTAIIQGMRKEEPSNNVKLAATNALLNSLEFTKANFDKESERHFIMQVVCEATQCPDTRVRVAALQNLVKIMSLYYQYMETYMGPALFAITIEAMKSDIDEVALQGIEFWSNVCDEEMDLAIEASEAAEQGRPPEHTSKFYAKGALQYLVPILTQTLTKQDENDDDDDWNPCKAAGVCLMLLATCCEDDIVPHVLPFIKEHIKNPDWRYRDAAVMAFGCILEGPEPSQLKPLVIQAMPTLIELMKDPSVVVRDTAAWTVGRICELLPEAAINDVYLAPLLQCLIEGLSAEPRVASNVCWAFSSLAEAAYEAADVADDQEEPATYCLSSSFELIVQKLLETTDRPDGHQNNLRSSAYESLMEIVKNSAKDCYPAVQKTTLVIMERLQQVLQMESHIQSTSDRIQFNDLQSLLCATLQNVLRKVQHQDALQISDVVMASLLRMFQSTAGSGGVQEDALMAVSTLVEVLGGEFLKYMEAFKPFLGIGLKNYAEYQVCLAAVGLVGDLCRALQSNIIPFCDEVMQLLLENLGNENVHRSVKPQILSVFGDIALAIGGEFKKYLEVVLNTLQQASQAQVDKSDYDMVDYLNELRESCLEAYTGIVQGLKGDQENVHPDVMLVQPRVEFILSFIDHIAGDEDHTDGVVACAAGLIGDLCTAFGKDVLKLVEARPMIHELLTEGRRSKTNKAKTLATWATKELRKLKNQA

Importin beta = Importin beta (Homo sapiens, UniProt Q14974); experiment: Binding studies (Table 3 comment)
Sequence of Importin beta (Q14974 whole entry): as above

In the case of `CSCC[C@@H]1NC(=O)[C@H](CC(C)C)NC(=O)[C@H](CCCCN)NC(=O)[C@H](CCC(N)=O)NC(=O)[C@H](CCCNC(=N)N)NC(=O)[C@H](CCCCN)NC(=O)[C@H](CCCNC(=N)N)NC(=O)[C@H](CCC(N)=O)NC(=O)[C@H](C(C)C)NC(=O)[C@@H](NC(=O)[C@@H]2CCCN2C(=O)[C@H](C)NC(=O)[C@H](CC(C)C)NC(=O)[C@H](CC(C)C)NC(=O)[C@H](C)NC(=O)[C@H](CC(C)C)NC(=O)[C@H](CC(C)C)NC(=O)[C@@H](NC(=O)[C@H](C)NC(=O)[C@@H]2CCCN2C(=O)[C@H](CC(C)C)NC(=O)[C@H](CC(C)C)NC(=O)[C@H](C)NC(=O)[C@@H](NC(=O)[C@H](C)NC(=O)[C@H](C)N)C(C)C)C(C)C)CSSC[C@@H](C(=O)O)NC(=O)[C@@H]2CCCN2C1=O` [cSN50.1] (H-AAVALLPAVLLALLAPCVQRKRQKLMPC-OH; disulfide 17-28; N-terminus and C-terminus assumed), the viability at 48 h [1] is listed as over 80%, the apparent toxicity [2] is listed as “lack of apparent toxicity” and the solubility [3] is listed as at least 100 mg/mL.

`CSCC[C@@H]1NC(=O)[C@H](CC(C)C)NC(=O)[C@H](CCCCN)NC(=O)[C@H](CCC(N)=O)NC(=O)[C@H](CCCNC(=N)N)NC(=O)[C@H](CCCCN)NC(=O)[C@H](CCCNC(=N)N)NC(=O)[C@H](CCC(N)=O)NC(=O)[C@H](C(C)C)NC(=O)[C@H](Cc2ccc(O)cc2)NC(=O)[C@@H](NC(=O)[C@@H]2CCCN2C(=O)[C@H](C)NC(=O)[C@H](CC(C)C)NC(=O)[C@H](CC(C)C)NC(=O)[C@H](C)NC(=O)[C@H](CC(C)C)NC(=O)[C@H](CC(C)C)NC(=O)[C@@H](NC(=O)[C@H](C)NC(=O)[C@@H]2CCCN2C(=O)[C@H](CC(C)C)NC(=O)[C@H](CC(C)C)NC(=O)[C@H](C)NC(=O)[C@@H](NC(=O)[C@H](C)NC(=O)[C@H](C)N)C(C)C)C(C)C)CSSC[C@@H](C(=O)O)NC(=O)[C@@H]2CCCN2C1=O` [cSN50] (H-AAVALLPAVLLALLAPCYVQRKRQKLMPC-OH; disulfide 17-29; N-terminus and C-terminus assumed) showed a solubility [3] of 2 to 40 mg/mL (≈ 0.635 to 12.7 mM).

With AAVALLPAVLLALLAPCVQRDEQKLMPC [cSN50.1β] the “Comments: importin selectivity” value (Imp beta) was “Imp beta-selective”.

In the case of “AAVALLPAVLLALLAPVQRDEQKLMP (Description of sequence: Peptide, name of peptide: SM12)”, the “Comments: importin selectivity” value (Importin beta) is reported as “Importin beta-”.
